One may read the half-life as the time needed for the level to fall by half in the phase considered. Higher therefore signals slow decline. What is called AUC(0-inf) is total exposure, with the tail of the curve extrapolated. A high value points to high exposure. As a reminder, the AUC(0-t) is exposure summed from dosing to a finite time, without extrapolation to infinity. Lower therefore signals less exposure. One may read the Cmax as the highest concentration seen after dosing. As usually defined, the MRT inf is a mean duration of stay, worked out from the concentration-time curve. As usually defined, the Tmax is the time from dosing to the highest level. A word on the clearance: it is a measure of how efficiently the substance is removed, as volume per time. High values mean a high capacity for elimination, low ones a low capacity for elimination. One may read the bioavailability as the share of a dose that reaches the circulation, judged against a reference dose that is usually intravenous. Read a low bioavailability as little systemic uptake. As usually defined, the EC50 is the concentration giving half of the maximal effect. Higher therefore signals weaker potency.

Series [1] is described as follows: Liver microsome stability test. Type of series: in vitro ADME. The settings on record: rat liver microsomes, compound 1 μM, 0.5 mg/mL microsome, 37° C.; for half-life at 1 μM: pH 7.4. As to the method: The solution of compound in DMSO (10 mM) was diluted with a mixed solvent of acetonitrile and water (1:1, v/v) to get a 100 μM compound solution, and then the 100 μM compound solution was diluted with potassium phosphate buffer (0.1 M, pH 7.4) to get a 3 μM compound solution. NADPH was formulated with potassium phosphate buffer (0.1 M, pH 7.4) to NADPH solution (6 mM). Rat liver microsome was formulated with potassium phosphate buffer (0.1 M, pH 7.4) to liver microsome solution (1.5 mg/mL).
The total volume of incubation mixture was 45 μL, including 15 μL rat liver microsome solution (1.5 mg/mL), 15 μL compound solution (3 μM) and 15 μL NADPH solution (6 mM), the final concentration of liver microsome in the incubation mixture was 0.5 mg/mL, the compound concentration was 1 μM, the NADPH concentration was 2 mM.
The incubation mixture was incubated at 37° C. The reaction was terminated by adding 120 μL acetonitrile solution containing internal standard at different time points (20 min and 60 min), and centrifuged at 4000 rpm for 5 min. The supernatant was took out and analyzed by LC-MS/MS.
At the same time, a parallel incubation test was set up, using inactivated rat liver microsomes as negative control and verapamil at the same concentration as positive control. The reaction was incubated at 37° C. and terminated at different time points (20 minutes and 60 minutes).
The ratio of sample peak area to internal standard peak area was obtained by analyzing through LC/MS/MS, the drug content of the negative control was as 100%, the drug relative content at each time point was calculated. The rate constant was obtained by plotting based on “Log[compound concentration]” to “incubating time”, and then the half-life T1/2 and intrinsic clearance CLHep of the compound were calculated.

A short description of series [2]: Pharmacokinetic test in SD rats. The series is classed as in vivo. The settings on record: male, rat, plasma. As to the method: Experimental animals: 6 healthy male adult SD rats (purchased from Hunan SJA Laboratory Animal Co.; Ltd) were randomized into 2 groups, 3 in each group, the groups were administered by intravenous injection and gavage respectively.
Preparation of drugs: an amount of the compound was scaled, and the target concentrate of the compound was prepared by addition of 5% DMSO, 10% Kolliphor HS15 and 85% saline (0.9%).
Administration and samples collection: the animals were fasted 12 hours before administration and provided again 3 hours post-administration, SD rats were administrated by intravenous injection from hindlimb peduncular veins (1 mg/kg) and by gavage (PO, 5 mg/kg). 200-400 μL of blood was collected at different time points 0, 0.083, 0.25, 0.5, 1, 2, 4, 6, 8, 24 h from rats tail vein. Blood collection was 200-400 μL per time point. The blood collected at each time point was placed in K2EDTA anticoagulant tube, and stored at a couveuse with ice bags. All the samples in 15 min were centrifuged at 4600 r/min at 4° C. for 5 min, plasma samples were obtained, the concentrates of compound in the plasma samples were determined by LC/MS/MS, the pharmacokinetic parameters were calculated based on the drug concentration-time curve.

Series [3] addresses farnesoid X receptor protein (Homo sapiens (Human), UniProt Q96RI1). Kind of series: Coactivation of TR-FRET farnesoid X receptor protein (Invitrogen PV4833 Kit). Type of series: biochemical. The settings on record: TR-FRET coactivator recruitment, Fluorescein-SRC2-2, 1 hour at room temperature. Background: In TR-FRET formats the signal depends on donor and acceptor labels being close together.
Method: Purchasing Invitrogen PV4833 Kit.
Step 1, the compound was weighed and dissolved in 100% DMSO, the highest concentration is 3000 μM, and then diluted with DMSO by 3-fold serial dilution to get 10 concentrations.
Step 2, the above formulated compound solutions were diluted 100 times with the buffer provided in the kit, which were mixed respectively and 10 μL of which were added into a 384 well plate in turn.
Step 3, FXR recombinant nucleo receptor protein was diluted with a buffer to formulate 4× concentration, and 5 μL of which was added into the above 384 well plate containing the compound.
Step 4, Fluorescein-SRC2-2 and Tb anti-GST antibody were diluted with a buffer respectively, both concentration are 4×, after the two reagents were mixed together, 10 μL of which was added into the 384 well plate described in step 3.
At last, the solution in the 384 well plate was blend by centrifugation, and then incubated at room temperature for 1 hour.

Chain of farnesoid X receptor protein (Q96RI1 262-486, other chains not shown): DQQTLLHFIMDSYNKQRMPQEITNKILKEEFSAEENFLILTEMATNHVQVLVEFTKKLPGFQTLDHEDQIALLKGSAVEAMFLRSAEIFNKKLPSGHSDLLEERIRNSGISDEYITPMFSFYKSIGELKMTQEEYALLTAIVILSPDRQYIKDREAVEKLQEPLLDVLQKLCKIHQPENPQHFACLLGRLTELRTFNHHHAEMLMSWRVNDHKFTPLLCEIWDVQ

As to `O=C(O)c1ccc2c(c1)Oc1ccc(OCc3c(-c4ccc(Cl)cc4Cl)noc3C3CC3)nc1C1(CC1)C2` [Example 5, 2-((5-cyclopropyl-3-(2,4-dichlorophenyl)isoxazol-4-yl)methoxy)-10H-spiro[benzo[6,7]oxepino[3,2-b]pyridine-11,1′-cyclopropane]-7-carboxylic acid], in series [1], the half-life at 1 μM is 25 min and the ClHep came out at 99.23 mL/min/kg.
In series [1], `O=C(O)c1ccc2c(c1)Oc1ccc(OCc3c(-c4ccccc4OC(F)(F)F)noc3C3CC3)nc1C1(CC1)C2` [Example 3, 2-((5-cyclopropyl-3-(2-(trifluoromethoxy)phenyl)isoxazol-4-yl)methoxy)-10H-Spiro[benzo[6,7]oxepino[3,2-b]pyridine-11,1′-cyclopropane]-7-carboxylic acid] displayed a half-life at 1 μM of 26.8 min and a ClHep of 92.61 mL/min/kg. In addition, in series [2] (iv, 1 mg/kg), the AUC(0-inf) was 1740 ng·h/mL, the AUC(0-t) stood at 1730 ng·h/mL, the Cmax stood at 1660 ng/mL and the MRT inf is 60.6 min. In series [2] (iv, 1 mg/kg), the Tmax stood at 4.98 min, the clearance came out at 9.62 mL/min/kg and the half-life was 46.4 min. In addition, the Vd in series [2] (iv, 1 mg/kg, read-out: Vss) was 0.584 L/kg. In addition, the bioavailability in series [2] (po 5 mg/kg versus iv 1 mg/kg) was 71.3%. In series [2] (po, 5 mg/kg), the AUC(0-inf) was determined as 6210 ng·h/mL, the AUC(0-t) came out at 6170 ng·h/mL, the peak level (Cmax) was 2320 ng/mL and the MRT inf came to 103 min. Further, in series [2] (po, 5 mg/kg), the Tmax came out at 60 min and the half-life was 53.5 min. Moreover, the EC50 in series [3] is 8.6 nM.
`O=C(O)c1ccc2c(c1)Oc1ccc(OCc3c(-c4ccccc4OC(F)(F)F)noc3C3CC3)nc1CC2` [Example 2, 2-((5-cyclopropyl-3-(2-(trifluoromethoxy)phenyl)isoxazol-4-yl)methoxy)-10,11-dihydrobenzo[6,7]oxepino[3,2-b]pyridine-7-carboxylic acid]: in series [1], the half-life at 1 μM turned out to be 28.8 min and the ClHep was determined as 86.33 mL/min/kg.

(Values after patent US11208418B2, “Nitrogenous tricyclic compounds and uses thereof in medicine” (SUNSHINE LAKE PHARMA CO., LTD., priority 2018, dated 2021).)
